Tests used:
rat [1] = conditions: Sub-acute repeat dose toxicity, Oral, Gavage/Intubation, dose end: 7 day, group: systemic
mouse [2] = conditions: Chronic toxicity, Oral, Gavage/Intubation, dose end: 186 day, group: systemic
rat [3] = conditions: Sub-acute repeat dose toxicity; Oral; Gavage/Intubation; dose end: 7 day; group: systemic; systemic / clinical chemistry / globulins / globulins + systemic / clinical chemistry / bilirubin / total bilirubin + systemic / organ …
rat [4] = conditions: Sub-acute repeat dose toxicity; Oral; Gavage/Intubation; dose end: 7 day; group: systemic; systemic / pathology microscopic / kidney / hyaline droplet + systemic / pathology microscopic / kidney / regeneration + systemic / …
dog [5] = conditions: Sub-acute repeat dose toxicity, beagle, Oral, Gavage/Intubation, dose end: 29 day, group: systemic
rat [6] = conditions: Sub-acute repeat dose toxicity, Oral, Gavage/Intubation, dose end: 7 day, group: systemic; remark: listed apart in the source
rat [7] = conditions: Sub-acute repeat dose toxicity, Oral, Gavage/Intubation, dose end: 14 day, group: systemic
rat [8] = conditions: Sub-acute repeat dose toxicity; Oral; Feed; dose end: 14 day; group: systemic; systemic / in life observation / clinical signs / defecation + systemic / in life observation / clinical signs / hunched posture + systemic…
mouse [9] = conditions: Sub-acute repeat dose toxicity, Oral, Gavage/Intubation, dose end: 30 day, group: systemic
dog [10] = conditions: Chronic toxicity, beagle, Oral, Gavage/Intubation, dose end: 274 day, group: systemic
mouse [11] = conditions: Subchronic oral toxicity in rodents, cd1, Gavage/Intubation, dose end: 13 week, group: systemic, systemic / clinical chemistry / alanine aminotransferase (alt/sgpt) / alanine aminotransferase (alt/sgpt) + systemic / clinical chemistry / …
mouse [12] = conditions: Sub-acute repeat dose toxicity, cd1, Oral, Gavage/Intubation, dose end: 4 week, group: systemic
dog [13] = conditions: Sub-acute repeat dose toxicity; beagle; Oral; Capsule; dose end: 1 month; group: systemic; systemic / clinical chemistry / glucose / glucose + systemic / in life observation / body weight / body weight + systemic / in life …
rabbit = conditions: Prenatal developmental toxicity study; new zealand white; Oral; Gavage/Intubation; dose end: 19 GD; group: maternal; systemic / in life observation / body weight / body weight gain + systemic / in life observation / clinical signs / anogenital staining + …
rat [14] = conditions: Prenatal developmental toxicity study, sprague dawley, Oral, Gavage/Intubation, dose end: 17 GD, group: maternal
rat [15] = conditions: Fertility (Segment I), sprague dawley, Oral, Gavage/Intubation, dose end: 7 GD
rat [16] = conditions: Fertility (Segment I), sprague dawley, Oral, Gavage/Intubation, dose end: 49 day
rat [17] = conditions: Sub-acute repeat dose toxicity, sprague dawley, Oral, Gavage/Intubation, dose end: 28 day, group: systemic
[18] = systemic / clinical chemistry / cholesterol / cholesterol + systemic / clinical chemistry / protein / protein + systemic / hematology / …
[19] = systemic / clinical chemistry / cholesterol / cholesterol + systemic / hematology / eosinophils / eosinophils + systemic / clinical …
[20] = systemic / clinical chemistry / alkaline phosphatase (alp/alk) / alkaline phosphatase (alp/alk) + systemic / clinical chemistry / …
[21] = systemic / clinical chemistry / bilirubin / total bilirubin + systemic / in life observation / body weight / body weight + systemic / organ …
[22] = systemic / in life observation / clinical signs / arrhythmia + systemic / organ weight / testes / absolute + systemic / organ weight / …
[23] = systemic / in life observation / food consumption / food consumption + systemic / pathology microscopic / liver / depletion glycogen + …
[24] = systemic / pathology microscopic / adrenal gland / hypertrophy + systemic / pathology microscopic / kidney / regeneration + systemic / …
[25] = systemic / clinical chemistry / cytochrome p450, nos / cytochrome p450, nos + systemic / clinical chemistry / glucose / glucose + systemic…
[26] = systemic / clinical chemistry / cytochrome p450, nos / cytochrome p450, nos + systemic / in life observation / clinical signs / lacrimation …
[27] = systemic / clinical chemistry / alanine aminotransferase (alt/sgpt) / alanine aminotransferase (alt/sgpt) + systemic / clinical chemistry / …
[28] = systemic / organ weight / liver / absolute + systemic / pathology microscopic / liver / hypertrophy
[29] = systemic / in life observation / clinical signs / defecation (diarrhea) + systemic / in life observation / clinical signs / soft stools
[30] = systemic / in life observation / clinical signs / defecation (diarrhea) + systemic / in life observation / clinical signs / soft stools + …
[31] = systemic / in life observation / clinical signs / alopecia + systemic / in life observation / clinical signs / external lesion(s) + systemic…
[32] = systemic / in life observation / clinical signs / scabbing + systemic / in life observation / body weight / body weight + systemic / in life…
[33] = reproductive / reproductive performance / implantations / implantations + reproductive / reproductive performance / postimplantation loss / …
[34] = systemic / in life observation / body weight / body weight + systemic / in life observation / body weight / body weight gain + systemic / in…
[35] = group: maternal, reproductive / offspring survival early / litter viability other / total litter loss + reproductive / reproductive performance / estrous …
[36] = group: maternal, reproductive / reproductive performance / fertility / fertility + reproductive / reproductive performance / precoital interval / precoital …
[37] = group: parental, systemic / in life observation / clinical signs / alopecia + systemic / in life observation / body weight / body weight gain + systemic / in…
[38] = group: maternal, reproductive / reproductive performance / fertility / fertility + reproductive / reproductive performance / pregnancy index / pregnancy …
[39] = group: parental, systemic / in life observation / body weight / body weight + systemic / in life observation / body weight / body weight gain + systemic / in…
[40] = systemic / clinical chemistry / alanine aminotransferase (alt/sgpt) / alanine aminotransferase (alt/sgpt) + systemic / in life observation…

CCc1nn(CCO)c(CC)c1Oc1cc(C#N)cc(C#N)c1 [Lersivirine]
LEL (rat [1]; [18]): 70 mg/kg/day | NEL (rat [1]; [18]): < 70 mg/kg/day | LOAEL (rat [1]; [19]): > 1000 mg/kg/day | NOAEL (rat [1]; [19]): ≥ 1000 mg/kg/day | LEL (mouse [2]; [20]): 70 mg/kg/day | NEL (mouse [2]; [20]): < 70 mg/kg/day | LOAEL (mouse [2]; [21]): > 700 mg/kg/day | NOAEL (mouse [2]; [21]): ≥ 700 mg/kg/day | LOAEL (rat [3]): > 150 mg/kg/day | NEL (rat [3]): < 150 mg/kg/day | NOAEL (rat [3]): ≥ 150 mg/kg/day | LEL (rat [4]): 23 mg/kg/day | LOAEL (rat [4]): > 100 mg/kg/day | NEL (rat [4]): < 23 mg/kg/day | NOAEL (rat [4]): ≥ 100 mg/kg/day | LEL (dog [5]; [22]): 10 mg/kg/day | NEL (dog [5]; [22]): < 10 mg/kg/day | LOAEL (dog [5]; [23]): > 50 mg/kg/day | NOAEL (dog [5]; [23]): ≥ 50 mg/kg/day | LOAEL (rat [6]; [24]): > 150 mg/kg/day | NOAEL (rat [6]; [24]): ≥ 150 mg/kg/day | NEL (rat [6]; systemic / pathology microscopic / kidney / regeneration + systemic / pathology microscopic / adrenal gland / vacuolization + systemic / …): < 35 mg/kg/day | LOAEL (rat [7]; [25]): > 300 mg/kg/day | NOAEL (rat [7]; [25]): ≥ 300 mg/kg/day | LEL (rat [7]; [26]): 20 mg/kg/day | NEL (rat [7]; [26]): < 20 mg/kg/day | LOAEL (rat [8]): > 1500 mg/kg/day | NEL (rat [8]): 750 mg/kg/day | NOAEL (rat [8]): ≥ 1500 mg/kg/day | LOAEL (mouse [9]; [27]): > 500 mg/kg/day | NOAEL (mouse [9]; [27]): ≥ 500 mg/kg/day | LEL (mouse [9]; [28]): 50 mg/kg/day | NEL (mouse [9]; [28]): < 50 mg/kg/day | LEL (dog [10]; [29]): 5 mg/kg/day | NEL (dog [10]; [29]): < 5 mg/kg/day | LOAEL (dog [10]; [30]): > 45 mg/kg/day | NOAEL (dog [10]; [30]): ≥ 45 mg/kg/day

CCc1c(C(=O)NN2CCCCC2)nn(-c2ccc(Cl)cc2Cl)c1-c1ccc(Br)cc1 [Surinabant]
LEL (mouse [11]): 100 mg/kg/day | LOAEL (mouse [11]): > 1000 mg/kg/day | NEL (mouse [11]): < 100 mg/kg/day | NOAEL (mouse [11]): ≥ 1000 mg/kg/day | LOAEL (mouse [12]; [31]): > 4000 mg/kg/day | NOAEL (mouse [12]; [31]): ≥ 4000 mg/kg/day | LEL (mouse [12]; [32]): 1000 mg/kg/day | NEL (mouse [12]; [32]): < 1000 mg/kg/day | LEL (dog [13]): 10 mg/kg/day | LOAEL (dog [13]): 10 mg/kg/day | NEL (dog [13]): < 10 mg/kg/day | NOAEL (dog [13]): < 10 mg/kg/day | LEL (rabbit): 0.5 mg/kg/day | LOAEL (rabbit): 2 mg/kg/day | NEL (rabbit): < 0.5 mg/kg/day | NOAEL (rabbit): 0.5 mg/kg/day | LOAEL (rat [14]; [33]): > 100 mg/kg/day | NOAEL (rat [14]; [33]): ≥ 100 mg/kg/day | LEL (rat [14]; [34]): 10 mg/kg/day | NEL (rat [14]; [34]): < 10 mg/kg/day | LOAEL (rat [15]; [35]): > 1000 mg/kg/day | NOAEL (rat [15]; [35]): ≥ 1000 mg/kg/day | LEL (rat [15]; [36]): 10 mg/kg/day | NEL (rat [15]; [36]): < 10 mg/kg/day | LEL (rat [15]; [37]): 10 mg/kg/day | LOAEL (rat [15]; [37]): > 1000 mg/kg/day | NEL (rat [15]; [37]): < 10 mg/kg/day | NOAEL (rat [15]; [37]): ≥ 1000 mg/kg/day | LEL (rat [16]; [38]): 300 mg/kg/day | LOAEL (rat [16]; [38]): 300 mg/kg/day | NEL (rat [16]; [38]): 100 mg/kg/day | NOAEL (rat [16]; [38]): 100 mg/kg/day | LEL (rat [16]; [39]): 100 mg/kg/day | NEL (rat [16]; [39]): < 100 mg/kg/day | LOAEL (rat [16]; group: parental, systemic / pathology gross / sperm measure / sperm count): 300 mg/kg/day | NOAEL (rat [16]; group: parental, systemic / pathology gross / sperm measure / sperm count + systemic / in life observation / body weight / body weight + systemic / in life …): 100 mg/kg/day | LOAEL (rat [17]; [27]): > 300 mg/kg/day | NOAEL (rat [17]; [27]): ≥ 300 mg/kg/day | LEL (rat [17]; [40]): 30 mg/kg/day | NEL (rat [17]; [40]): < 30 mg/kg/day

From EPA's ToxRefDB 2
